Where no end group is shown, it is not given here.
Assays:
Format in all cases: cell-based, human
[1] = system: allergen specific T cells; test: T cell proliferation assay (72 h) on donor derived T cell lines (TCL02/TCL03); settings: for Proliferation % donor coverage (TCL-02 DK1): T cell lines TCL-02 DK1, 30 donors, hit criteria SI>=2, CPM>=1000; for Proliferation strength (TCL-02 DK1): T cell lines TCL-02 DK1, strength of response (average relative magnitude)
Text: Isolated PBMCs (peripheral blood mononuclear cells) obtained from the donors described in Example 2 were CD8 depleted and the T cell lines were established by stimulating the cultures with nPhl p1, mix of nPhl p 2 and […] 5 and […] established for each of the donors tested by stimulating with the mixture of above listed allergens. Grass allergic donors were recruited (cohort DK1 including 30 grass allergic individuals, DK2 including 24 grass allergic individuals and US1 including 15 grass allergic individuals). PBMCs were isolated from freshly drawn heparinized blood by gradient centrifugation on lymphoprep (Nycomed, Norway), washed twice and re-suspended in RPMI 1640 medium with HEPES and ultraglutamine (Cambrex, Belgium) supplemented with 5% v/v human AB-serum (Cambrex, Belgium), 100 units/ml penicillin, and 0.1 mg/ml streptomycin (Sigma, St Louis, USA) (referred to as 5% AB-medium). Aliquots of the isolated PBMCs were frozen and were thawed later to stimulate the T cell lines. Additionally either fresh or thawed PBMCs were used as antigen presenting cells (APCs) in the proliferation assay as described later. In some cases the PBMCs were freezed at this stage and thawed later on to continue the experiment as described in the following. The isolated PBMCs (fresh or thawed) were CD8 depleted by MACS magnetic depletion according to the manufacturer's instructions (Miltenyi Biotec, Bergisch Gladbach, Germany). On day 0 the CD8-depleted PBMCs (2×10^6/ml) were stimulated in 1 ml bulk cultures in AB medium in 24 well plates (Nunc, Denmark) with the mixture of natural allergens: nPhl p 1 (0.5 μg/ml), mix of […]). […] On day 14 cells were harvested to obtain T cell line generation 01 (referred to as TCL01). Restimulation of T cell lines were performed in AB-medium with the thawed autologous PBMCs (10^6/well, irradiated 2500 Rad), the above mixture of natural allergens (concentration as mentioned above), and PHA-P (0.5 μg/ml, Difco, Detroit, Mich., USA). rIL-2 was added at day 17, 18 and 19. On day 24 cells were harvested to obtain T cell line generation 02 (referred as TCL02). T cells were isolated, washed, counted and used for T cell proliferation assay as described later. Remaining cells were frozen for later thawing and re-stimulations. The T cell line generation 2 (TCL02) were thawed and were re-stimulated with allogeneic Epstein Bar Virus transformed lymphoblastoid cell lines (EBV) B cells (JY cells, 10^5/well, irradiated 3500 Rad), allogeneic PBMCs (10^6/well, irradiated 2500 Rad), and 0.5 μg/ml PHA-P and subsequent addition of rIL-2 at days 3-5 to generate T cell line generation 03 (referred to as TCL03). […] To summarize ELISpot experiments were carried out at day 14 (with TCL01) and proliferation assay on either day 24 (with TCL02) or at day 34 (with TCL03). […] To ensure that all T cell epitopes regions from the major and intermediate grass allergens of the grass were identified T cell screening was carried out with either overlapping peptides or selected peptides. […] These were overlapping 20-mer peptides spanning the entire full length amino acid sequence of […] and selected high binder peptides from Phl p 4 were tested. Additionally 21, 15 mer peptides were tested which were derived from various group 1 and 5 allergens. Also, 67 peptides from homologous grass allergens were tested. Finally some reference peptides and mixes thereof were also tested. The 15-mer peptides were selected on the basis of predicted and measured promiscuous HLA binding and of sequence homology between known proteins sequences from the relevant pooideae grasses and the Bermuda grass. […] To get comprehensive data from all the donors the peptides were tested in both Fluorospot/Elispot (day 14, TCL01) and proliferation (day 24, TCL02).

[2] = system: release of IL-5 upon T cell activation; test: Fluorospot assay, IL-5 release (DK1-TCL01, US1-TCL01); settings: head prints TCL-02 DK1; text: 25 TCL-01 DK1 lines
Method: (§1) Grass allergic donors were recruited (cohort DK1 including 30 grass allergic individuals, DK2 including 24 grass allergic individuals and US1 including 15 grass allergic individuals). PBMCs were isolated from freshly drawn heparinized blood by gradient centrifugation on lymphoprep (Nycomed, Norway), washed twice and re-suspended in RPMI 1640 medium with HEPES and ultraglutamine (Cambrex, Belgium) supplemented with 5% v/v human AB-serum (Cambrex, Belgium), 100 units/ml penicillin, and 0.1 mg/ml streptomycin (Sigma, St Louis, USA) (referred to as 5% AB-medium). Aliquots of the isolated PBMCs were frozen and were thawed later to stimulate the T cell lines. Additionally either fresh or thawed PBMCs were used as antigen presenting cells (APCs) in the proliferation assay as described later. In some cases the PBMCs were freezed at this stage and thawed later on to continue the experiment as described in the following. The isolated PBMCs (fresh or thawed) were CD8 depleted by MACS magnetic depletion according to the manufacturer's instructions (Miltenyi Biotec, Bergisch Gladbach, Germany). On day 0 the CD8-depleted PBMCs (2×10^6/ml) were stimulated in 1 ml bulk cultures in AB medium in 24 well plates (Nunc, Denmark) with the mixture of natural allergens: nPhl p 1 (0.5 μg/ml), mix of nPhl p 2/nPhl p 3 (1.0 μg/ml), nPhl p 4 (0.5 μg/ml), nPhl p 5 (0.5 μg/ml) and nCyn d 1 (0.5 μg/ml). Amount of 65 U, 30 U, and 30 U recombinant IL-2 (Chiron, USA) were added per well at days 5, 6 and 7, respectively. On day 14 cells were harvested to obtain T cell line generation 01 (referred to as TCL01).
(§2) On day 14 the T cells of TCL01 were isolated, washed and counted. The isolated T cells of TCL01 generation were used to perform either ELISpot or Fluorospot assay. TCL01 were further re-stimulated as described in the next paragraph for use in T cell proliferation. The aliquot for use in T cell proliferation was re-stimulated on day 14 to carry out proliferation experiment at day 24.
(§3) In the Fluorospot assays, release of IL-5 and IFN-γ upon T cell activation (of donor derived lines DK1-TCL01, and US1-TCL01) with a peptide or a peptide-mix described herein was measured by Fluorospot assay kit (Mabtech AB) and procedures were followed as per manufacturer's instructions. Briefly anti-human IL-5 and anti-human IFN-γ coated 96 well plates were obtained and blocked with 10% AB serum in RPMI. The plates were washed thoroughly and the isolated T cells were plated and incubated with either single peptides (2 μg/ml) or peptide mixes (2 μg/ml), or allergens nPhl p1, nPhl p 2, nPhl p 3, nPhl p 4, nPhl p 5, Cyn d 1 at 2 μg/ml for 20 hrs/37° C./5% CO2. After the incubation time the cells were removed by emptying the plate. Detection antibodies 7-B6-1-FS-FITC (1:200) and 5A10-biotin (2 μg/ml) were diluted in PBS-0.1% BSA and were added to the plate and incubated for 2 hours/room temperature (RT). There-after the plates were washed and anti-FITC-green (1:200) and SA-Red (1:200) diluted in PBS±0.1% BSA were added and incubated for 1 hour/RT/dark. After the incubation period the plates were washed, emptied and fluorescence enhancer solution was added for 15 minutes/RT. Plates were emptied, fluorescence enhancer solution was firmly tapped out against a clean paper, soft plastic under drain was removed and the plates were left in the dark to dry. The counts were inspected in a fluorospot reader. Hit criteria for peptide were 20 SFCs/10^6 PBMCs, p≤0.05 and poisson 0.05 stimulated cells compared to background, and a stimulation index (SI)≥2.
(§4) The peptides were identified as hits if they fulfilled the criteria as mentioned below where stimulation index (SI) value of 2 or above, Poisson value=<0.05 and P value=<0.05, SFC>=20 (IL-5/IFN-g)/10^6 cells and CPM>=1000 (proliferation) SI can be defined as [[…]/medium control] in a Fluorospot assay and [counts per minute (cpm)/medium control] in a proliferation assay.

[3] = system: release of IFN-γ upon T cell activation; test: Fluorospot assay, IFN-γ release (DK1-TCL01, US1-TCL01); settings: head prints TCL-02 DK1; 17 TCL-01 DK1 lines
Method: as §1, §2, §3, §4

| Compound | Proliferation % donor coverage (TCL-02 DK1) [1] | Proliferation strength (TCL-02 DK1) [1] | IL-5-Fluorospotr % donor coverage (TCL-02 DK1) [2] | IFN-gamma % donor coverage (TCL-02 DK1) [3] |
| --- | --- | --- | --- | --- |
| GDEQKLRSAGELELQFRRVK-OH [compound 6] | 46.67% | 7.10 | 20.00% | 4.00% |
| ELTLQFRRVKSKYPSGTKIT-OH [compound 102] | 33.33% | 4.70 | 4.00% | 8.00% |
| TSKLDAAYKLAYKTAEGATP-OH [compound 65] | 30.00% | 5.70 | 4.00% | 4.00% |
| CC[C@H](C)[C@H](NC(=O)[C@H](CCCCN)NC(=O)[C@@H](NC(=O)[C@H](CC(C)C)NC(=O)[C@@H](NC(=O)[C@@H]1CCCN1C(=O)[C@H](CCC(=O)O)NC(=O)CNC(=O)[C@H](CO)NC(=O)[C@H](CO)NC(=O)[C@H](CCC(=O)O)NC(=O)[C@@H](NC(=O)[C@@H]1CCCN1)C(C)C)C(C)C)C(C)C)C(=O)N[C@H](C(=O)N[C@@H](CC(=O)O)C(=O)N[C@@H](CCCCN)C(=O)N[C@@H](CC(N)=O)C(=O)N[C@@H](Cc1ccc(O)cc1)C(=O)N[C@@H](CCC(=O)O)C(=O)N[C@@H](Cc1c[nH]cn1)C(=O)O)[C@@H](C)O [compound 97] | 10.00% | 0.70 | 4.00% | 8.00% |
| ASGYKDVDKPPFDGMTASGN-OH [compound 93] | 16.67% | 2.40 | 0.00% | 0.00% |
| YIITPTNVSHIQSAVVSGRR-OH [compound 46] | 27.00% | 1.00 | 0.00% | 0.00% |
| TSAVGAATGAATAATGGYKV-OH [compound 88] | 0.00% | 0.00 | 0.00% | 0.00% |
| CC[C@H](C)[C@H](NC(=O)[C@@H](NC(=O)[C@H](CCC(=O)O)NC(=O)[C@H](CC(=O)O)NC(=O)[C@H](Cc1ccccc1)NC(=O)[C@@H](NC(=O)[C@@H](N)CC(N)=O)C(C)C)C(C)C)C(=O)N1CCC[C@H]1C(=O)N[C@H](C(=O)N[C@@H](C)C(=O)N[C@@H](Cc1ccccc1)C(=O)N[C@H](C(=O)N[C@H](C(=O)NCC(=O)N[C@@H](CCCCN)C(=O)O)C(C)C)[C@@H](C)O)[C@@H](C)O [compound 127] | 10.34% | 2.80 | 0.00% | 0.00% |
| CC[C@H](C)[C@H](NC(=O)[C@@H](NC(=O)[C@H](CCCNC(=N)N)NC(=O)[C@H](CC(C)C)NC(=O)[C@H](C)NC(=O)[C@H](CCC(=O)O)NC(=O)[C@@H](NC(=O)[C@H](CC(C)C)NC(=O)[C@@H](NC(=O)[C@H](C)NC(=O)[C@@H](NC(=O)[C@H](Cc1ccc(O)cc1)NC(=O)[C@H](C)NC(=O)[C@@H](N)CC(=O)O)C(C)C)[C@@H](C)O)[C@@H](C)O)C(C)C)C(=O)N[C@@H](C)C(=O)O [compound 128] | 60.00% | 13.50 | 41.67% | 12.00% |
| CC[C@H](C)[C@H](NC(=O)[C@H](CCC(=O)O)NC(=O)[C@H](Cc1c[nH]c2ccccc12)NC(=O)[C@@H](NC(=O)CNC(=O)[C@@H](N)CC(=O)O)C(C)C)C(=O)N[C@@H](CCCCN)C(=O)N[C@@H](CO)C(=O)N[C@@H](CC(=O)O)C(=O)N[C@@H](CCCCN)C(=O)N1CCC[C@H]1C(=O)N[C@@H](CC(C)C)C(=O)N[C@@H](CCCCN)C(=O)NCC(=O)N1CCC[C@H]1C(=O)O [compound 130] | 10.34% | 1.80 | 12.50% | 4.00% |
| PMKSSWGAIWRIDPKKPLKG-OH [compound 108] | 33.33% | 4.10 | 4.00% | 0.00% |
| AAESSSKAALTSKLDAAYKL-OH [compound 78] | 16.67% | 3.00 | 0.00% | 0.00% |
| VFDDVVPEKYTIGATYAPEE-OH [compound 35] | 13.33% | 0.70 | 0.00% | 0.00% |

— patent US20180207228A1, “PEPTIDE COMBINATIONS AND USES THEREOF FOR TREATING GRASS ALLERGY” (ALK-Abelló A/S, priority 2015, published 2018)
